Experimental data published in PMC3910367 (Science signaling, 2013).
Like-named read-outs stand apart in the source and are kept apart here.

Experiments:
[1] = system: LNCaP cells; assay: Cholesterol content of membrane subfractions; assay type: cell-based; conditions: fractions 3 and 4
[2] = system: LNCaP-abl cells; assay: MTT viability assay in LNCaP-abl cells; assay type: cell-based; conditions: read-out: IC50, antiproliferative effect, fig. S5D
[3] = system: mTORC2; assay: Western blot of mTORC2 components and downstream targets; assay type: cell-based; conditions: fig. S2C
[4] = system: Akt; assay: Western blot of Akt phosphorylation in prostate cancer cells; assay type: cell-based; conditions: for phosphorylation at Ser473 in Akt / phosphorylation at Thr308 in Akt: LNCaP and PC-3 cells, 24 hours; for concentrations required to induce PHLPP1-mediated Akt inhibition: prostate cancer cells
[5] = system: LNCaP cells; assay type: cell-based; conditions: 24 hours
[6] = biological target: PH domain of Akt (Homo sapiens, UniProt P31749); assay: SPR binding to GST-tagged PH domain of Akt; conditions: read-out: Kd, wild-type Akt PH domain
[7] = biological target: Y38G PH domain mutant of Akt (Homo sapiens, UniProt P31749, Y38G); assay: SPR binding to Y38G Akt PH domain mutant; conditions: versus wild-type PH domain
[8] = system: normal prostate epithelial cells; assay: MTT viability assay in normal prostate epithelial cells; assay type: cell-based; conditions: for apoptosis in normal prostate epithelial cells: fig. S1A
[9] = system: LNCaP and PC-3 cells; assay: MTT viability assay in prostate cancer cells; assay type: cell-based; conditions: read-out: IC50, antiproliferative effect (cell viability)
[10] = biological target: T1, PH domain of PHLPP1 (Homo sapiens, UniProt O60346); assay: SPR binding to GST-tagged PH domain of PHLPP1
T1 sequence (O60346 536-636 limits assumed): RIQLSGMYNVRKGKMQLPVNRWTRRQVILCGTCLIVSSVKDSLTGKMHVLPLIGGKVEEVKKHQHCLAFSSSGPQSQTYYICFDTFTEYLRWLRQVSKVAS

[11] = system: PIP3; assay: Radiometric analysis of phosphoinositide production; assay type: cell-based; conditions: LNCaP cells, 500 μM, 6 hours

Chain of Y38G PH domain mutant of Akt (P31749 5-108 Y38G limits assumed): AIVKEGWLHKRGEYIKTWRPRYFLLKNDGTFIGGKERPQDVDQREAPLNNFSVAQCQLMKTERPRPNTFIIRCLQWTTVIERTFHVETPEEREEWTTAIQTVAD
Chain of PH domain of Akt (P31749 5-108 limits assumed): as the sequence (P31749 5-108 Y38G limits assumed) above, with G34Y counted along it

IC50 [2] [µM]	Kd [6] [µM]	effect of Y38G mutation on binding affinity for the Akt PH domain [7]	IC50 ([9]; LNCaP and PC-3 cells, MTT, 24 hours, serum-free medium) [µM]	binding to PH domains of Akt and PHLPP1 compared [10]	IC50 ([9]; 24 h) [µM]	SMILES	reduction of cholesterol content in raft domains [1] [%]	phosphorylation of SGK or PKCα (mTORC2 downstream targets) [3]	phosphorylation at Ser473 in Akt [4]	phosphorylation at Thr308 in Akt [4]	decrease in phosphorylation of Ser473 in Akt in non-raft fractions [5]	increase in association of PHLPP1 with the membrane in non-raft fractions [5]	IC50 ([8]; read-out: IC50, cell viability, MTT, 24 hours) [µM]	PIP3 concentrations [11]	concentrations required to induce PHLPP1-mediated Akt inhibition [4]	apoptosis in normal prostate epithelial cells [8]
10	3.4	significantly enhanced	15 to 20	equal potency		Cc1c(C)c2c(c(C)c1O)CCC(C)(CCCC(C)C)O2 (stereo not drawn) [α-VE5]	≤ 30	lack of changes	parallel reduction	without disturbing	more than 65%	more than 2.5 fold	~50			
					~400	Cc1c(C)c2c(c(C)c1O)CC[C@@](C)(CCC[C@H](C)CCC[C@H](C)CCCC(C)C)O2 [α-tocopherol]		no effect	dose-dependently reduced	without altering				unaffected	greater than 150 μM	resistant
					100 to 150	Cc1c(O)cc2c(c1C)O[C@](C)(CCC[C@H](C)CCC[C@H](C)CCCC(C)C)CC2 [γ-tocopherol]		no effect	dose-dependently reduced	without altering					greater than 150 μM	resistant
